{
  "source": "patent US20220112187A1",
  "about": "“PYRAZOLOPYRIDINE AMINE COMPOUNDS FOR THE TREATMENT OF AUTOIMMUNE DISEASE” (Hoffmann-La Roche Inc., priority 2018, published 2022)",
  "molecular_target": "T1, human TLR8 (Homo sapiens, UniProt Q9NR97)",
  "T1 sequence (Q9NR97 27-1041)": "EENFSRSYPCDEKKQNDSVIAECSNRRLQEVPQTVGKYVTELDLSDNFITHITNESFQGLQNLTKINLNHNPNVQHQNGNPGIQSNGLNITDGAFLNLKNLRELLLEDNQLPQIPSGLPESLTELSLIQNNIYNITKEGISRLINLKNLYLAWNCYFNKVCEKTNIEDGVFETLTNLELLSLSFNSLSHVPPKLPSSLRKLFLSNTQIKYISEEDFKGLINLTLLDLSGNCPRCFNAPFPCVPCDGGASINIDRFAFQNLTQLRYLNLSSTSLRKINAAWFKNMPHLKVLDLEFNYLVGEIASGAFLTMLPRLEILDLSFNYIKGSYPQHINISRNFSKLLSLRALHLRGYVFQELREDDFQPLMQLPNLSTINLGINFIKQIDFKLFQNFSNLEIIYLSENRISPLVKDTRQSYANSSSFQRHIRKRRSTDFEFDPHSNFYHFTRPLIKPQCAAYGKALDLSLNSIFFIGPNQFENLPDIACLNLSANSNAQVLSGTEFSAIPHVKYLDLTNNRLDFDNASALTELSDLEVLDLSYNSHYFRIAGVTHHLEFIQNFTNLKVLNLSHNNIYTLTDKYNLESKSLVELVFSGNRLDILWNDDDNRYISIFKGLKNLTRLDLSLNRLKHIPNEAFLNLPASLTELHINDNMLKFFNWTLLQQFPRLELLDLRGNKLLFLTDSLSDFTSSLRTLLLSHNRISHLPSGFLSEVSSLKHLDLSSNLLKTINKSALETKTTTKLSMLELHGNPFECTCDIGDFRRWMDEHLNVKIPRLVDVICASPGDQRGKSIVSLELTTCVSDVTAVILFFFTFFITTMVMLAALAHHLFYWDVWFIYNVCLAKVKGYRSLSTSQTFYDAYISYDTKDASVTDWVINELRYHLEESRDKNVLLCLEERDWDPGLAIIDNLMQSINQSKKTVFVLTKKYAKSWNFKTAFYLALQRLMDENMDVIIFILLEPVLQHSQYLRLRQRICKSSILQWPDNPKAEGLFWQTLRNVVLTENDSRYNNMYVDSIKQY",
  "experiment": "HEK293-Blue-hTLR-8 cells assay (SEAP reporter, R848 stimulation)",
  "format": "cell-based",
  "settings": "HEK293-Blue-hTLR8 cells, R848 ligand, 20 hrs incubation",
  "how_it_was_run": "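Antagonist mode: HEK293-Blue-hTLR8 cells with serially diluted compound (1% DMSO final) plus R848 (10 μL of 60 uM stock) for 20 hrs at 37° C. Supernatant NF-κB/AP-1-driven SEAP measured with QUANTI-Blue substrate, 2 hrs at 37° C, absorbance 620–655 nm.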",
  "data": [
    {"smiles": "C[C@@H]1CN(c2ccc(C#N)n3nccc23)C[C@H](CN2CCN(C3CCNCC3)CC2Cc2ccccc2)O1", "note": "(stereo partly drawn) [Example 77, 4-[(2S,6R)-2-[[2-benzyl-4-(4-piperidyl)piperazin-1-yl]methyl]-6-methyl-morpholin-4-yl]pyrazolo[1,5-a]pyridine-7-carbonitrile]", "values": [
      {"measurement": "IC50", "result": 130, "unit": "nM"}
    ]}
  ]
}
